From ChEMBL document CHEMBL1147509, “Pharmacology of the agonist binding sites of rat neuronal nicotinic receptor subtypes expressed in HEK 293 cells” (Bioorg Med Chem Lett, 2004)

How the values were obtained:
[1] = molecular target: Neuronal acetylcholine receptor; alpha4/beta2 (Rattus norvegicus, UniProt P09483+P12390); assay: Binding affinity towards rat Nicotinic acetylcholine receptor alpha4-beta2 expressed in HEK293 cells using [3H]EB as radioligand; format: cell-based
[2] = molecular target: Neuronal acetylcholine receptor; alpha3/beta4 (Rattus norvegicus, UniProt P04757+P12392); assay: Binding affinity towards rat Nicotinic acetylcholine receptor alpha3-beta4 expressed in HEK293 cells using [3H]EB as radioligand; format: cell-based
[3] = molecular target: Neuronal acetylcholine receptor; alpha4/beta4 (Rattus norvegicus, UniProt P09483+P12392); assay: Binding affinity towards rat Nicotinic acetylcholine receptor alpha4-beta4 expressed in HEK293 cells using [3H]EB as radioligand; format: cell-based
[4] = Binding affinity towards rat alpha2-beta4 nACh receptor expressed in HEK293 cells using [3H]EB as radioligand; format: cell-based
[5] = molecular target: Neuronal acetylcholine receptor; assay: Binding affinity towards rat forebrain nicotinic acetylcholine receptor using [3H]EB as radioligand
[6] = Ratio between the binding affinities towards rat alpha3-beta4 and alpha3-beta2 nACh receptor using [3H]EB as radioligand
[7] = molecular target: Neuronal acetylcholine receptor; alpha2/beta2 (Rattus norvegicus, UniProt P12389+P12390); assay: Binding affinity towards rat nicotinic acetylcholine receptor alpha2-beta2 expressed in HEK293 cells using [3H]EB as radioligand; format: cell-based
[8] = Ratio between the binding affinities towards rat alpha2-beta4 and alpha2-beta2 nACh receptor using [3H]-EB as radioligand
[9] = Ratio between the binding affinities towards rat alpha4-beta4 and alpha4-beta2 nACh receptor using [3H]EB as radioligand
[10] = molecular target: Neuronal acetylcholine receptor; alpha3/beta2 (Rattus norvegicus, UniProt P04757+P12390); assay: Binding affinity towards rat Nicotinic acetylcholine receptor alpha3-beta2 expressed in HEK293 cells using [3H]EB as radioligand; format: cell-based
[11] = Ratio between the binding affinities towards rat alpha3-beta4 and forebrain nACh receptor using [3H]EB as radioligand

Chain of Neuronal acetylcholine receptor; alpha3/beta4 (P04757 whole entry): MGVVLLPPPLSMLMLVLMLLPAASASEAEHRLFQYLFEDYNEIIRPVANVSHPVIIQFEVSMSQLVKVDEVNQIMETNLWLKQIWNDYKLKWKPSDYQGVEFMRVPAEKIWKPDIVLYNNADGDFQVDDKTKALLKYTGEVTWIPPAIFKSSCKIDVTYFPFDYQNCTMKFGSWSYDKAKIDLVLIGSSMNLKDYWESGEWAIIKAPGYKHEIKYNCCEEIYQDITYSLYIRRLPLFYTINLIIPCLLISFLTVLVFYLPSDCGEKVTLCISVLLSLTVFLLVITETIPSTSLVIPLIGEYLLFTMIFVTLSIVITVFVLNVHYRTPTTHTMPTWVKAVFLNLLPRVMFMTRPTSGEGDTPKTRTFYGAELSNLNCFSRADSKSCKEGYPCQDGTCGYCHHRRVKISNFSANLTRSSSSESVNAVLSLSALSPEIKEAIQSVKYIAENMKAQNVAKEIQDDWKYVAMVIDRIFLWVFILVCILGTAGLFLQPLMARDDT
Chain of Neuronal acetylcholine receptor; alpha3/beta4 (P12392 whole entry): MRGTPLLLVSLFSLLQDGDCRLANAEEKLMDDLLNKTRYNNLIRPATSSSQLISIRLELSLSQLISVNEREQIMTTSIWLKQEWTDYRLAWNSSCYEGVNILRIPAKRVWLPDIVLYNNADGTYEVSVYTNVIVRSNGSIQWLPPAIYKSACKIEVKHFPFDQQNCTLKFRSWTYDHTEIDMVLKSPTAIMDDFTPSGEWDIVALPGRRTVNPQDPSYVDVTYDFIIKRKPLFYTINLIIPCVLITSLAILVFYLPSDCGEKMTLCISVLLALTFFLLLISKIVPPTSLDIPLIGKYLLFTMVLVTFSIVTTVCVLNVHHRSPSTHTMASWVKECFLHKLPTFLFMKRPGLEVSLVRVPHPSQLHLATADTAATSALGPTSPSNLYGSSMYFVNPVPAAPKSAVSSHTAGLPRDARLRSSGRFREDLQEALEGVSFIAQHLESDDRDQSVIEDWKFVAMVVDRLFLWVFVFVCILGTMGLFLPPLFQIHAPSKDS
Chain of Neuronal acetylcholine receptor; alpha3/beta2 (P04757 whole entry): as the sequence (P04757 whole entry) above
Chain of Neuronal acetylcholine receptor; alpha3/beta2 (P12390 whole entry): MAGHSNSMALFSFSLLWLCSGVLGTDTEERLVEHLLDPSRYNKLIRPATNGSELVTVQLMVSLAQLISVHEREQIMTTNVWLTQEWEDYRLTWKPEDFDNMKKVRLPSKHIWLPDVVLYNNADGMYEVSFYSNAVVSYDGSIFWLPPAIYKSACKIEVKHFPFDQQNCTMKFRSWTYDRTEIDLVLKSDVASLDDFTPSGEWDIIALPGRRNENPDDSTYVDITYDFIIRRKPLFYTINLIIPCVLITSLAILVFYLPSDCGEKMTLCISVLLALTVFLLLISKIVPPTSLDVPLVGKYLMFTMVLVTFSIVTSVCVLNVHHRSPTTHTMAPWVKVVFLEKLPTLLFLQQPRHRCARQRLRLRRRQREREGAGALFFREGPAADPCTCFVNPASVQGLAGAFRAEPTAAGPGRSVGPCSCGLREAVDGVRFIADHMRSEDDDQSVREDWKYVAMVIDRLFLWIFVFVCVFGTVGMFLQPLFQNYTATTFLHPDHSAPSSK
Chain of Neuronal acetylcholine receptor; alpha2/beta2 (P12389 whole entry): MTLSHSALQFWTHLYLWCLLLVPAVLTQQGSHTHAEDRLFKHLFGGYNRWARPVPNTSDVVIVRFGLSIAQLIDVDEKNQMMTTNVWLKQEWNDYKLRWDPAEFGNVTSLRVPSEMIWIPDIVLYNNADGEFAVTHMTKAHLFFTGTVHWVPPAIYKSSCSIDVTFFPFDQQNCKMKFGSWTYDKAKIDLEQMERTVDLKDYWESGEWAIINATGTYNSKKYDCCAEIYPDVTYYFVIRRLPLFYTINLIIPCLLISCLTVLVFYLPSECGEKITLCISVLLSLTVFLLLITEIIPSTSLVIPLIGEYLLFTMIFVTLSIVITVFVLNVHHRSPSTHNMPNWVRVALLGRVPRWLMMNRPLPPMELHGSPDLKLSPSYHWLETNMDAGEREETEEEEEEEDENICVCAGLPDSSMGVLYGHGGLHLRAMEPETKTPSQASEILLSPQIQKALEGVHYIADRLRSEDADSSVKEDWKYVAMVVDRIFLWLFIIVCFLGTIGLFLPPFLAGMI
Chain of Neuronal acetylcholine receptor; alpha2/beta2 (P12390 whole entry): as the sequence (P12390 whole entry) above
Chain of Neuronal acetylcholine receptor; alpha4/beta2 (P09483 whole entry): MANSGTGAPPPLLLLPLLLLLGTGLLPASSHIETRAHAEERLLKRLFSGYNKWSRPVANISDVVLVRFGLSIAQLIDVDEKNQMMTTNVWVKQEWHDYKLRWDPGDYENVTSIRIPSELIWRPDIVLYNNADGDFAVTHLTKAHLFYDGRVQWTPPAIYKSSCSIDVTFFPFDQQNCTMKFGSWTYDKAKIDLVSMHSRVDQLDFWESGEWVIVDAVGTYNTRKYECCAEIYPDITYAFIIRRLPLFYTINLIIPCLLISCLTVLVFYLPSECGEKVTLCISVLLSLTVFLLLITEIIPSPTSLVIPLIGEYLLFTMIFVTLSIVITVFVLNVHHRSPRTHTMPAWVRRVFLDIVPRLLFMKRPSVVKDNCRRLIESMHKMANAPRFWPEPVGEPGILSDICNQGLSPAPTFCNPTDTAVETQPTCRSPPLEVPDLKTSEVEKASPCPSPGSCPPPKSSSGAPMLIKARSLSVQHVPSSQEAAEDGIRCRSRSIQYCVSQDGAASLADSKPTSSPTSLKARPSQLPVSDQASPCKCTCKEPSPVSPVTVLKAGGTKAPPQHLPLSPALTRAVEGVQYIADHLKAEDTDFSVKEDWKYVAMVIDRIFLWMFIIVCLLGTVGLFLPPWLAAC
Chain of Neuronal acetylcholine receptor; alpha4/beta2 (P12390 whole entry): as the sequence (P12390 whole entry) above
Chain of Neuronal acetylcholine receptor; alpha4/beta4 (P09483 whole entry): as the sequence (P09483 whole entry) above
Chain of Neuronal acetylcholine receptor; alpha4/beta4 (P12392 whole entry): as the sequence (P12392 whole entry) above

| Compound | Ki [1] [nM] | Ki [2] [nM] | Ki [3] [nM] | Ki [4] [nM] | Ki [5] [nM] | Ratio [6] | Ki [7] [nM] | Ratio [8] | Ratio [9] | Ki [10] [nM] | Ratio [11] |
| --- | --- | --- | --- | --- | --- | --- | --- | --- | --- | --- | --- |
| Ic1cncc(O[C@H]2CCN2)c1 | 0.062 | 290 | 24 | 47 | 0.14 | 690 | 0.031 | 1520 | 387 | 0.42 | 2070 |
| c1cncc(OC[C@@H]2CCN2)c1 | 0.14 | 72 | 7.1 | 17 |  |  | 0.074 |  |  | 0.24 |  |
| Clc1ccc(C2CC3CCC2N3)cn1 (racemic; form 1) [EPIBATIDINE] |  |  |  | 0.087 |  |  |  |  |  |  |  |
| Clc1ccc(C2CC3CCC2N3)cn1 (racemic; form 2) [EPIBATIDINE] |  |  |  | 0.13 |  |  |  |  |  |  |  |
| CC(=O)OCC[N+](C)(C)C [ACETYLCHOLINE] |  |  |  | 180 |  |  | 11 |  |  |  |  |
| C[N+](C)(C)CCOC(N)=O [CARBACHOL] | 590 | 4800 | 1300 | 640 |  |  | 210 |  |  | 1100 |  |
| C[N+](C)(C)CCO [CHOLINE] | 37000 | 48000 | 34000 | 21000 | 42000 | 1 | 18000 | 1 | 1 | 37000 | 1 |
| O=c1cccc2n1C[C@@H]1CNC[C@H]2C1 [CYTISINICLINE] | 1.5 |  | 2.2 | 5.5 | 2.5 | 6 | 1.4 | 4 | 1 | 37 | 84 |
| C[N+]1(C)CCN(c2ccccc2)CC1 [DIMETHYLPHENYLPIPERAZINIUM IODIDE] |  | 800 |  | 1300 |  |  | 28 |  |  | 42 |  |
| CN1CCC[C@H]1c1cccnc1 [NICOTINE] |  |  |  | 130 |  |  |  |  |  |  |  |
